Assay results published in US8119643B2, “Benzoimidazolyl-pyrazine compounds for inflammation and immune-related uses” (Synta Pharmaceuticals Corp., priority 2006, dated 2012).

Test system: IL-2 production
Test: Inhibition of IL-2 production in PHA-activated Jurkat cells (ELISA)
Assay type: cell-based
Settings: Homo sapiens, PHA 2.5 μg/mL, 20 hours, IL-2 ELISA
Description: Jurkat cells were placed in a 96 well plate (0.5 million cells per well in 1% FBS medium) then a test compound of this invention was added at different concentrations. After 10 minutes, the cells were activated with PHA (final concentration 2.5 μg/mL) and incubated for 20 hours at 37° C. under CO2. The final volume was 200 μL. Following incubation, the cells were centrifuged and the supernatants were collected and stored at −70° C. prior to assaying for IL-2 production. A commercial ELISA kit (IL-2 Eli-pair, Diaclone Research, Besancon, France) was used to detect production of IL-2, from which dose response curves were obtained. The IC50 value was calculated as the concentration at which 50% of maximum IL-2 production after stimulation was inhibited versus a non-stimulation control.

SMILES | IC50
CCOc1ccccc1C(=O)Nc1cnc(-n2c(C(F)(F)F)nc3cc(OC)ccc32)cn1 [Compound 123, 2-Ethoxy-N-[5-(5-methoxy-2-trifluoromethyl-benzoimidazol-1-yl)-pyrazin-2-yl]-benzamide] | > 1000 nM
COc1ccc2c(c1)nc(C(F)(F)F)n2-c1cnc(NC(=O)c2cc(C)cc(C)c2)cn1 [Compound 121, N-[5-(5-Methoxy-2-trifluoromethyl-benzoimidazol-1-yl)-pyrazin-2-yl]-3,5-dimethyl-benzamide] | > 1000 nM
COc1ccc2c(c1)nc(C(F)(F)F)n2-c1cnc(NC(=O)c2ccc(C#N)cc2)cn1 [Compound 93, 4-Cyano-N-[5-(5-methoxy-2-trifluoromethyl-benzoimidazol-1-yl)-pyrazin-2-yl]-benzamide] | 181 nM
COc1ccc2c(c1)nc(C(F)(F)F)n2-c1cnc(NC(=O)c2cc(F)c(F)cc2F)cn1 [Compound 143, 2,4,5-Trifluoro-N-[5-(5-methoxy-2-trifluoromethyl-benzoimidazol-1-yl)-pyrazin-2-yl]-benzamide] | 178 nM
COc1ccc2c(c1)nc(C(F)(F)F)n2-c1cnc(NC(=O)c2cccc(OC)c2OC)cn1 [Compound 128, 2,3-Dimethoxy-N-[5-(5-methoxy-2-trifluoromethyl-benzoimidazol-1-yl)-pyrazin-2-yl]-benzamide] | 187 nM
COc1ccc2c(c1)nc(C(F)(F)F)n2-c1cnc(NCc2ccccc2OC)cn1 [Compound 102, (2-Methoxy-benzyl)-[5-(5-methoxy-2-trifluoromethyl-benzoimidazol-1-yl)-pyrazin-2-yl]-amine] | > 1000 nM
COc1ccc(C(=O)Nc2cnc(-n3c(C(F)(F)F)nc4cc(OC)ccc43)cn2)cc1 [Compound 120, 4-Methoxy-N-[5-(5-methoxy-2-trifluoromethyl-benzoimidazol-1-yl)-pyrazin-2-yl]-benzamide] | 295 nM
COc1ccc2c(c1)nc(C(F)(F)F)n2-c1cnc(NCc2ccccc2)cn1 [Compound 115, Benzyl-[5-(5-methoxy-2-trifluoromethyl-benzoimidazol-1-yl)-pyrazin-2-yl]-amine] | > 1000 nM
COc1ccc2c(c1)nc(C(F)(F)F)n2-c1cnc(NC(=O)c2ccc(OC)c(OC)c2)cn1 [Compound 126, 3,4-Dimethoxy-N-[5-(5-methoxy-2-trifluoromethyl-benzoimidazol-1-yl)-pyrazin-2-yl]-benzamide] | > 1000 nM
COc1ccc2c(c1)nc(C(F)(F)F)n2-c1cnc(NC(=O)c2cccc(C)c2[N+](=O)[O-])cn1 [Compound 142, N-[5-(5-Methoxy-2-trifluoromethyl-benzoimidazol-1-yl)-pyrazin-2-yl]-3-methyl-2-nitro-benzamide] | 324 nM
COc1ccc(C(=O)Nc2cnc(-n3c(C(F)(F)F)nc4cc(OC)ccc43)cn2)c(OC)c1 [Compound 124, 2,4-Dimethoxy-N-[5-(5-methoxy-2-trifluoromethyl-benzoimidazol-1-yl)-pyrazin-2-yl]-benzamide] | > 1000 nM
CCCCCc1ccc(C(=O)Nc2cnc(-n3c(C(F)(F)F)nc4cc(OC)ccc43)cn2)cc1 [Compound 131, N-[5-(5-Methoxy-2-trifluoromethyl-benzoimidazol-1-yl)-pyrazin-2-yl]-4-pentyl-benzamide] | 331 nM
COc1ccc2c(c1)nc(C(F)(F)F)n2-c1cnc(NCc2ccccc2C)cn1 [Compound 46, [5-(5-Methoxy-2-trifluoromethyl-benzoimidazol-1-yl)-pyrazin-2-yl]-(2-methyl-benzyl)-amine] | > 1000 nM
COc1ccc2c(c1)nc(C(F)(F)F)n2-c1cnc(NC(=O)c2ccc(Cl)cc2OC)cn1 [Compound 134, 4-Chloro-2-methoxy-N-[5-(5-methoxy-2-trifluoromethyl-benzoimidazol-1-yl)-pyrazin-2-yl]-benzamide] | > 1000 nM
COc1ccc2c(c1)nc(C(F)(F)F)n2-c1cnc(NC(=O)c2ccc([N+](=O)[O-])cc2)cn1 [Compound 97, N-[5-(5-Methoxy-2-trifluoromethyl-benzoimidazol-1-yl)-pyrazin-2-yl]-4-nitro-benzamide] | 307 nM

These reach a lower IC50. Values come first.

IC50 | SMILES
170 nM | COc1ccc2c(c1)nc(C(F)(F)F)n2-c1cnc(NC(=O)c2cccc(C)c2)cn1 [Compound 116, N-[5-(5-Methoxy-2-trifluoromethyl-benzoimidazol-1-yl)-pyrazin-2-yl]-3-methyl-benzamide]
132 nM | COc1ccc2c(c1)nc(C(F)(F)F)n2-c1cnc(NCc2c(F)cccc2Cl)cn1 [Compound 100, (2-Chloro-6-fluoro-benzyl)-[5-(5-methoxy-2-trifluoromethyl-benzoimidazol-1-yl)-pyrazin-2-yl]-amine]
112 nM | COC(=O)c1ccc2c(c1)nc(C(F)(F)F)n2-c1cnc(NC(=O)c2ccncc2C)cn1 [Compound 28, 1-{5-[(3-Methyl-pyridine-4-carbonyl)-amino]-pyrazin-2-yl}-2-trifluoromethyl-1H-benzoimidazole-5-carboxylic acid methyl ester]
103 nM | COc1ccc2c(c1)nc(C(F)(F)F)n2-c1cnc(NCc2c(F)cccc2F)cn1 [Compound 37, (2,6-Difluoro-benzyl)-[5-(5-methoxy-2-trifluoromethyl-benzoimidazol-1-yl)-pyrazin-2-yl]-amine]
101 nM | COc1ccc2c(c1)nc(C(F)(F)F)n2-c1cnc(NC(=O)c2cccc(F)c2)cn1 [Compound 88, 3-Fluoro-N-[5-(5-methoxy-2-trifluoromethyl-benzoimidazol-1-yl)-pyrazin-2-yl]-benzamide]
98 nM | COc1ccc2c(c1)nc(C(F)(F)F)n2-c1cnc(NC(=O)c2cc(Cl)ccc2F)cn1 [Compound 148, 5-Chloro-2-fluoro-N-[5-(5-methoxy-2-trifluoromethyl-benzoimidazol-1-yl)-pyrazin-2-yl]-benzamide]
96 nM | COc1ccc2c(c1)nc(C(F)(F)F)n2-c1cnc(NC(=O)c2cccc(C#N)c2)cn1 [Compound 101, 3-Cyano-N-[5-(5-methoxy-2-trifluoromethyl-benzoimidazol-1-yl)-pyrazin-2-yl]-benzamide]
88 nM | CCOC(=O)c1cccc(C(=O)Nc2cnc(-n3c(C(F)(F)F)nc4cc(OC)ccc43)cn2)c1 [Compound 114, N-[5-(5-Methoxy-2-trifluoromethyl-benzoimidazol-1-yl)-pyrazin-2-yl]-isophthalamic acid ethyl ester]
88 nM | COc1ccc2c(c1)nc(C(F)(F)F)n2-c1cnc(NC(=O)c2ccc(F)c(F)c2F)cn1 [Compound 149, 2,3,4-Trifluoro-N-[5-(5-methoxy-2-trifluoromethyl-benzoimidazol-1-yl)-pyrazin-2-yl]-benzamide]
81 nM | CCCCc1ccc(C(=O)Nc2cnc(-n3c(C(F)(F)F)nc4cc(OC)ccc43)cn2)cc1 [Compound 117, 4-Butyl-N-[5-(5-methoxy-2-trifluoromethyl-benzoimidazol-1-yl)-pyrazin-2-yl]-benzamide]
57 nM | COc1ccc2c(c1)nc(C(F)(F)F)n2-c1cnc(NC(=O)c2cccc(Br)c2)cn1 [Compound 108, 3-Bromo-N-[5-(5-methoxy-2-trifluoromethyl-benzoimidazol-1-yl)-pyrazin-2-yl]-benzamide]
55 nM | COc1ccc2c(c1)nc(C(F)(F)F)n2-c1cnc(NC(=O)c2ccc(Cl)cc2F)cn1 [Compound 9, 4-Chloro-2-fluoro-N-[5-(5-methoxy-2-trifluoromethyl-benzoimidazol-1-yl)-pyrazin-2-yl]-benzamide]
37 nM | COc1ccc2c(c1)nc(C(F)(F)F)n2-c1cnc(NC(=O)c2ccccc2Br)cn1 [Compound 85, 2-Bromo-N-[5-(5-methoxy-2-trifluoromethyl-benzoimidazol-1-yl)-pyrazin-2-yl]-benzamide]
33 nM | COc1ccc2c(c1)nc(C(F)(F)F)n2-c1cnc(NC(=O)c2ccc(F)cc2F)cn1 [Compound 7, 2,4-Difluoro-N-[5-(5-methoxy-2-trifluoromethyl-benzoimidazol-1-yl)-pyrazin-2-yl]-benzamide]
27 nM | COc1ccc2c(c1)nc(C(F)(F)F)n2-c1cnc(NC(=O)c2cc(F)ccc2Cl)cn1 [Compound 151, 2-Chloro-5-fluoro-N-[5-(5-methoxy-2-trifluoromethyl-benzoimidazol-1-yl)-pyrazin-2-yl]-benzamide]
19 nM | COc1ccc2c(c1)nc(C(F)(F)F)n2-c1cnc(NC(=O)c2ccc(Cl)cc2Cl)cn1 [Compound 110, 2,4-Dichloro-N-[5-(5-methoxy-2-trifluoromethyl-benzoimidazol-1-yl)-pyrazin-2-yl]-benzamide]
18 nM | COc1ccc2c(c1)nc(C(F)(F)F)n2-c1cnc(NC(=O)c2ccc(Br)cc2)cn1 [Compound 107, 4-Bromo-N-[5-(5-methoxy-2-trifluoromethyl-benzoimidazol-1-yl)-pyrazin-2-yl]-benzamide]
18 nM | COc1ccc2c(c1)nc(C(F)(F)F)n2-c1cnc(NC(=O)c2cc([N+](=O)[O-])ccc2C)cn1 [Compound 146, N-[5-(5-Methoxy-2-trifluoromethyl-benzoimidazol-1-yl)-pyrazin-2-yl]-2-methyl-5-nitro-benzamide]
17 nM | COc1ccc2c(c1)nc(C(F)(F)F)n2-c1cnc(NC(=O)c2cccc(C)c2C)cn1 [Compound 92, N-[5-(5-Methoxy-2-trifluoromethyl-benzoimidazol-1-yl)-pyrazin-2-yl]-2,3-dimethyl-benzamide]
15 nM | O=C(Nc1cnc(-n2c(C(F)(F)F)nc3cc(-c4ncco4)ccc32)cn1)c1c(F)cccc1F [Compound 153, 2,6-Difluoro-N-[5-(5-oxazol-2-yl-2-trifluoromethyl-benzoimidazol-1-yl)-pyrazin-2-yl]-benzamide]
2 nM | CCc1ccc(C(=O)Nc2cnc(-n3c(C(F)(F)F)nc4cc(OC)ccc43)cn2)cc1 [Compound 106, 4-Ethyl-N-[5-(5-methoxy-2-trifluoromethyl-benzoimidazol-1-yl)-pyrazin-2-yl]-benzamide]
